Experimental data taken from patent publication US9868707B2, “Small molecule agonists of neurotensin receptor 1” (SANFORD-BURNHAM MEDICAL RESEARCH INSTITUTE, priority 2012, dated 2018).
Read-outs that look alike come from different tables or passages of the source.

Molecular target: NTR1 (Homo sapiens, UniProt P30989)
Assay: NTR1 high-content imaging (HCS) dose response, NTR1-U2OS cells
Format: cell-based
Design: host or cells: U2OS osteosarcoma
Details: n = 4 unless otherwise noted; for EC50: Ave. ± S.E.M., read-out: HCS NTR1 Potency EC50
Excerpt: The cell lines utilized in the high-content imaging assays, which include the NTR1-, NTR2-, and GPR35-U2OS osteosarcomas, were obtained from the laboratory of Dr. Lawrence Barak at the Duke University Medical Center. The media used in the culture of the cell lines, as well as the assays themselves, consisted of Minimum Essential Medium (15-010-CM) and L-glutamine (25-005-CL) from Cellgro/Mediatech (Manassas, Va.), fetal bovine serum (SH30396.03) from Hyclone (Logan, Utah), penicillin-streptomycin solution (PS-20) from Omega Scientific in Tarzana, Calif., G418 (ant-gn-1) from Invivogen (San Diego, Calif.), and zeocin (R250-01) from Invitrogen (Carlsbad, Calif.). Cell lines were cultured in T225 tissue culture flasks (431082) supplied by Corning (Corning, N.Y.). Additional reagents employed include Dulbecco's Phosphate-Buffered Saline (DPBS) (21-031CV) from Cellgro/Mediatech, Trypsin-EDTA 0.05% (25300) from Invitrogen, paraformaldehyde (30528954) from Acros Organics (Geel, Belgium), Hoechst 33342 (H3570) from Invitrogen. The high-content assays were run in 1536-well plates (29326) supplied by Aurora Biotechnology (Poway, Calif.) and utilized aluminum plate seals (T592100) from E&K Scientific (Santa Clara, Calif.).
The neurotensin 1 peptide (N6383) from Sigma-Aldrich (St. Louis, Mo.) was used as a positive control in the NTR1 primary HCS assay. For the NTR2 selectivity assay, the non-specific, small molecule 3-(4-fluorophenyl)-7,8-dimethoxy-5-(4-methylbenzyl)-5H-pyrazolo[4,3-c]quinolone which was synthesized internally was used as a positive control. The GPR35 selectivity screen utilized zaprinast (ALX430-020-M010) from Alexis Biochemicals (Farmingdale, N.Y.) as a control.
The high-content imaging based NTR1 primary screen in 1536-well format was utilized to assay the MLSMR library of chemical entities in the following manner. On day one, 4 uL of a cell suspension containing 350,000 NTR1-U2OS cells per mL is added to each well of a 1536-well assay plate. Cells are plated in MEM medium containing 2.5% Fetal Bovine Serum, 1% Penicillin/Streptomycin solution, 1% L-Glutamine, 400 ug/mL G418, and 200 ug/mL Zeocin. The assay plates are then incubated overnight at 37° C., under 5% CO2. Following the overnight incubation, a volume of 60 nL of the compounds at 2 mM in DMSO (final 20 μM, 1% DMSO) was transferred to columns 5-48 of the assay plates using a LabCyte Echo Liquid Handler. Next, 60 nL of DMSO were dispensed to columns 1-4, which served as the positive and neutral control wells. […] The assay plates were centrifuged on an Eppendorf 5810 centrifuge at 1000 rpm for 1 min to ensure even liquid levels in the wells of the assay plates. The assay plates were then returned to the incubator for 1 hour. Following the hour-long incubation at 37° C., the cells in each well were fixed with 4 uL of 6% paraformaldehyde added with a Multidrop Combi. The assay plates were centrifuged as before and incubated at room temperature for 1 hour. On the Kalypsys, plates were then aspirated down to 2.5 uL per well and washed twice with 11 uL per well of DPBS, followed by a final aspiration to 2.5 uL per well. On the Combi dispenser, 5 uL of 5 ug/mL Hoechst 33342 diluted in DPBS was added to each well of assay plates. The plates were again centrifuged as previously described, sealed, and incubated for at least 1 hour prior to being loaded on a PerkinElmer Opera QEHS.
Image acquisition was performed with a 45 plate capacity loader/stacker and the following settings: 40×0.6 NA air objective, acquisition camera set to 2-by-2 binning for an image size of 688 by 512 pixels, beta-arrestin-GFP acquired using 488 nm laser excitation and 540/75 nm emission filters, DAPI (nuclei) using 365 nm Xenon lamp excitation and 450/50 nm emission filters, 3 fields per well. Image analysis was performed using the Acapella Spot Detection Algorithm. For analysis settings and the metrics employed in the data analyses, please refer to supplemental information.

[1] = read-out: HCS NTR1 Potency Emax

NTR1, sequence (P30989 whole entry, species assumed): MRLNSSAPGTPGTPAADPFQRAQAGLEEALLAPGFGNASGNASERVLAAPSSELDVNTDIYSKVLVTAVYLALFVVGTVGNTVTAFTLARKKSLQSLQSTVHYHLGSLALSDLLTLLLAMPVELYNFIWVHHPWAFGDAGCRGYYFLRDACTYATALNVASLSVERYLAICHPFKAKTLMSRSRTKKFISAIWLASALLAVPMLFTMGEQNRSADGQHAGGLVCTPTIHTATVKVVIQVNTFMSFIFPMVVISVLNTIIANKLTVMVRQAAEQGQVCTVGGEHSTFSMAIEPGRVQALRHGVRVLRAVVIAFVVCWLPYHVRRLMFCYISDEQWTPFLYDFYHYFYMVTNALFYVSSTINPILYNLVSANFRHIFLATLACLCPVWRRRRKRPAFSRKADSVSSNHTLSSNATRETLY

| EC50 [µM] | Emax [1] [%] | Emax (heading: HCS NTR1 Potency Emax) [%] | SMILES |
| --- | --- | --- | --- |
| 46.4 ± 17.6 | 100 | – | COc1ccc(N2CCN(c3nc(C4CCC4)nc4cc(OC)c(OC)cc34)CC2)cc1 [Compound 329, 2-cyclobutyl-6,7-dimethoxy-4-(4-(4-methoxyphenyl)piperazin-1-yl)quinazoline] |
| 14.9 ± 3.2 | – | 91.6 | COc1cc2nc(C3CCC3)nc(N3CCN(c4ccccc4C)CC3)c2cc1OC [Compound 323, 2-cyclobutyl-6,7-dimethoxy-4-(4-(o-tolyl)piperazin-1-yl)quinazoline] |
| 7 ± 1 | 100 | – | C=Cc1nc(N2CCN(c3ccccc3OC)CC2)c2cc(OC)c(OC)cc2n1 [Compound 314, 6,7-dimethoxy-4-(4-(2-methoxyphenyl)piperazin-1-yl)-2-vinylquinazoline] |
